Where “and” joins values, the source holds several entries; their conditions need not be identical. Equal entries are not always repeated.
What was measured:
SREBP target gene SCD-1 = test: RT-PCR detection of SCD-1 gene expression in AN3CA cells; type: cell-based, human; conditions: 10 μM
Description: • 1. Experimental reagent • 2. The experimental steps are as follows: • 2.1 AN3CA cell recovery and culture (10% serum 1% double antibody in MEM medium); • 2.2 passages (passage at a ratio of 1:2); • 2.3 Place 6 well plates when the cell status is good, 5×10^5Well, culture overnight; • 2.4 adding medicine: diluting the final concentration of the drug with a culture medium to 10 μM, 2 mL/well; • 2.5 adding medicine for 48 h, and then extracting RNA; • 2.5.1 removing the culture medium, adding 0.5 mL/hole Trizol to lyse the cells, repeatedly blowing and beating the cells by a pipette after 5 min, completely lysing the cells, transferring the cells into a 1.5 mL EP tube without RNase, and standing the tube for 5 min; • 2.5.2 adding 200 µl chloroform, shaking rapidly, mixing, standing for 10 min 12000 rpm/15 min; • 2.5.3 carefully taking out the supernatant, transferring the supernatant into an EP tube, adding isopropanol with the same volume, reversing, uniformly mixing, standing for 10 min, and centrifuging at 12000 rpm/10 min; • 2.5.4 removing the supernatant, adding 1 mL of 75% ethanol for washing, centrifuging at 8000 rpm/5 min once, carefully removing the supernatant, standing at room temperature for 10 min to volatilize the ethanol, and dissolving the precipitate with 40 μL of DEPC treated water when the precipitate becomes transparent; • 2.5.5 RNA concentration was measured and DEPC-treated water was diluted to 100 ng/μL • 2.6 reverse transcription: Kit Takara (PrimeScript RT reagent Kit (Perfect Real Time)

And-1 [1] = biological target: T1, And-1 (Homo sapiens, UniProt O75717); test: inhibition of And-1 in OV90 CR cells; type: cell-based; set-up: endogenous in cells; conditions: inhibition of And-1, OV90 CR cells
T1 sequence (O75717 1-1129): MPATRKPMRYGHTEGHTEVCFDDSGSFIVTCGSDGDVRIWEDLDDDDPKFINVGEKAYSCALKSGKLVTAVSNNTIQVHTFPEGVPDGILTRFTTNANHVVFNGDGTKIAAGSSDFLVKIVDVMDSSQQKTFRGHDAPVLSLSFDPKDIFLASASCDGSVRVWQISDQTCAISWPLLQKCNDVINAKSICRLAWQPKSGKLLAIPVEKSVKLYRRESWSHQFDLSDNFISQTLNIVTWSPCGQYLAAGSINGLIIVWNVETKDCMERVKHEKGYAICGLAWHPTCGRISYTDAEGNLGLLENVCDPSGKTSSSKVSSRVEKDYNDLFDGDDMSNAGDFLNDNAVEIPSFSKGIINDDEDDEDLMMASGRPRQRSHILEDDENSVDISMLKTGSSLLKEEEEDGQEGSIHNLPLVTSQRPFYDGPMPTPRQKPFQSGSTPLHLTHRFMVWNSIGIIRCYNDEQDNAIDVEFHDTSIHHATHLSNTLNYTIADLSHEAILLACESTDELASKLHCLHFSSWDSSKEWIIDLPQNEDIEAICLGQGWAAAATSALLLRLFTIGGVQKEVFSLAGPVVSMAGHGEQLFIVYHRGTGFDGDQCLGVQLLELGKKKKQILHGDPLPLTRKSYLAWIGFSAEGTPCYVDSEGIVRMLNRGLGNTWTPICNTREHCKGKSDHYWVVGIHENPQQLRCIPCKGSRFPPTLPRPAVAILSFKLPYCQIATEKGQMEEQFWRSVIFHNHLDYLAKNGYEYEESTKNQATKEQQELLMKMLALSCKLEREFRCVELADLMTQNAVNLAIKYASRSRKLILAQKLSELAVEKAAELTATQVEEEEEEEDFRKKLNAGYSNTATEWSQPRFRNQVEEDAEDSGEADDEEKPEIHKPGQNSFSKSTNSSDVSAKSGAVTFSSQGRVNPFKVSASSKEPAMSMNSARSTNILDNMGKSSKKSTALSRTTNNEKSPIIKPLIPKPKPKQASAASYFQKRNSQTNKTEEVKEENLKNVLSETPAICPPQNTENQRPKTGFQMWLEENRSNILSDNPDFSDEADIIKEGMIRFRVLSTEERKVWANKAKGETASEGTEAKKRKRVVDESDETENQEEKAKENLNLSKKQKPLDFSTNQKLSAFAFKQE

And-1 [2] = biological target: T1, And-1; test: Western blot detection of And-1 protein expression in A549 cells; type: cell-based; set-up: endogenous in cells; host or cells: A549; conditions: A549 cell line, 5 μM, 24 hours
Description: Select the A549 cells in good growth condition and inoculate them in a 60 mm petri dish at a density of 500,000. After culturing in a constant temperature incubator at 37° C. and 5% CO2 for 24 hours, add different compounds of the same concentration (5 μM) and continue culturing for 24 hours before collecting Cells were subjected to Western blotting experiments to compare with untreated cells to detect the inhibitory effect of each compound on the expression of And-1 protein.

And-1 [3] = biological target: T1, And-1; test: inhibition of And-1 in IGROV1 CR cells; type: cell-based; set-up: endogenous in cells; host or cells: IGROV1 CR; conditions: inhibition of And-1, IGROV1 CR cells

`OB1OCc2cc(/C=C/c3ccc(Cl)c(Cl)c3)ccc21` [III, (E)-5-(3,4-dichlorostyryl)benzo[c][1,2]oxaborol-1(3H)-ol] was tested, and the “Relative mRNA expression of SCD-1” value (SREBP target gene SCD-1; AN3CA cells, 48 h, DMSO = 1) was 0.64, the “inhibitory effect on Srebp” value (SREBP target gene SCD-1; human endometrial cancer AN3CA cells) was “high inhibitory effect” and the IC50 (And-1 [1]) was 13.3 µM. For the same compound, the “expression of And-1 protein (Western blot)” value (And-1 [2]) was “significantly inhibit” and the IC50 (And-1 [3]) was 7.8 µM and 7.83 µM.
